Measurements reported in US7585839B2, “Medical uses of intercellular communication facilitating compounds” (Zealand Pharma A/S, priority 2001, dated 2009).

Tests used:
[1] = system: phosphoinositol turnover in neonatal rat cardiomyocytes; details: conference abstract, cited from earlier work
[2] = system: alkaline phosphatase (ALP) activity of human osteoblasts; experiment: Alkaline phosphatase assay, human osteoblasts; assay type: cell-based
Experimental: Day 1: Cells were plated in 96-well plates at a conc. of 8000 cells/well (hOB) or 3000 cells/well (ROS) in 200 μl normal culture medium.
Day 2: Medium was changed on the cells.
Day 4: (Day 3 for ROS): Cells were washed with 200 μl MEM, 0.1% BSA (Sigma, Cat.No. A-9418).
Day 8: (Day 5 for ROS): Alkaline Phosphatase (ALP) assay is a colorimetric endpoint method for measuring enzyme activity, and was done using Alkaline Phosphatase Kit (Sigma, Cat.No. 104-LL): Cells were washed once with 200 μl PBS+Ca,Mg. 100μl Alkaline Buffer Solution was added to each well and plate was placed at 37° C. for 10 min. 100 μl Substrate Solution was added to each well and plate was incubated at 37° C. for 30 min. 100 μl 2.0 N NaOH was added to each well to stop the reaction. Absorbance was measured using a plate reader at 405 nm.

[3] = system: phosphoinositol turnover in neonatal rat cardiomyocytes; experiment: Phosphoinositol turnover in primary cardiomyocyte cultures; assay type: cell-based; details: 100 nM + noradrenaline 300 nM
Experimental: Neonatal Wistar rats (1-2 days old) are used. Hank's calcium- and magnesium-free balanced salt solution, buffered with 10 mM HEPES is used for washing during cell separation procedures. The hearts are excised, the ventricles isolated and the tissue cut into small pieces. The myocardial cells are isolated by stepwise enzymatic degradation with collagenase 0.05%, as described by ^[35]. After repeated rounds of centrifugation and washing, the precipitated cells are resuspended in culture medium M199 with Earle's salt, 10% NCS, penicillin (75 U/mL), and streptomycin (75 U/mL) and pre-plated in a Petri dish for 90 minutes. The non-adherent cells are collected in the culture medium and plated in multidishes at 2.5*10^5 cells/well. The cultures are kept in a water-saturated CO2-incubator at 37° C. The cardiomyocyte cultures are used for analyses after 6-7 days.
Cardiomyocyte cultures are incubated for 48 hours in culture medium containing 4 μCi/mL myo-[2-^3H]inositol to label the inositol phospholipids. On the day of analysis the medium is replaced by a buffer solution containing lithium and incubated at 37° C., as described by Meier et al.^[36]. After at least five minutes this buffer is replaced by the same volume of buffer containing test compound and incubated for exactly 20 minutes. The reaction is stopped by rapid replacement of the buffer by ice cold 4% v/v perchloric acid (PCA) and incubation for at least 20 minutes at 0° C. The PCA-extract is neutralised and the [^3H]inositol phosphates are separated by anion-exchange chromatography using Amprep™ columns containing 100 mg SAX Quaternary amine. The [^3H]inositol mono-phosphates are eluted and radioactivity in the fraction measured by liquid scintillation counting.
Before adding test substances to the cultures, the cells are depleted of glucose and oxygen by incubating them in a N2-atmosphere in glucose-free lithium-buffer for 10 minutes at 37° C. Control cells are incubated likewise only at normal atmospheric conditions and in a buffer containing glucose.

human osteoblastic cells = experiment: DDT-induced uncoupling in human osteoblast cells, Lucifer Yellow microinjection; assay type: cell-based; details: after DDT 13 μM 60 minutes; 10^−8 mol/l, 10 minutes; p<0.01
Experimental: Human osteoblast cells: Cells were isolated from human bone marrow obtained by puncture of the posterior iliac spine of healthy volunteers (aged 20-36): 10-15 ml marrow material was collected in 15 ml PBS+Ca, Mg (Life Technologies, Cat.No. 14040) with 100 U/ml Heparin (Sigma, Cat.No. H-3149). The mononuclear fraction of the marrow was isolated on a Lymphoprep gradient (Nycomed Pharma, Cat.No. 1001967), by centrifugation at 2200 rpm for 30 min. After harvesting, the mononuclear fraction was washed once with culture medium and centrifuged at 1800 rpm for 10 min. Subsequently cells were counted and plated in culture medium at 8×10^6 cells/100 mm dish. hOB medium (all reagents obtained from Life Technologies): MEM w/o Phenol Red w/Glutamax (Cat.No. 041-93013) supplemented with 10% heat inactivated fetal calf serum (Cat.No. 10106) and 0.1% Penicillin/Streptomycin (Cat.No. 15140). Medium was changed the following day and the cells were cultured at 37° C. in 5%CO2 with medium change every 7 days. After 3-4 weeks of culture the cells had reached 70% confluence. The medium was then supplemented with 100 nM Dexamethasone (Sigma, Cat.No. D-4902) for 7 days. Cells were then plated for video imaging experiments: a 25 mm #1 glass coverslip was placed in a 35 mm dish (or each well of a 6-well multidish), cells were plated at 2.5×10^5 cells/coverslip and cultured for 2-3 days before use. […]

For “Ac-D-Tyr-D-Pro-D-4Hyp-Gly-D-Ala-Gly-NH2 [Compound 2]”, the “noradrenalin-induced level of PI turnover” value ([1]; normal athmospheric and nutritional conditions) is listed as “do not alter”, the “noradrenalin-induced PI turnover, % of the normal level” value ([1]; oxygen and glucose deprivation) is listed as ~90% and the “stimulation of ALP activity during hypoxia, greater than during normoxia” value ([2]; 5% O2 four days, 10^−11 to 10^−8 mol/l) is listed as “about 15%”. The ALP activity ([2]; normal culture conditions, 1×10^−13 to 1×10^−6) was “increased ALP activity at most of the concentrations tested”, the “increase in phospho-inositol turnover above the increase effected by noradrenaline alone” value ([3]; anoxia and glucose deprivation) was “about 70%” and the “effect on noradrenaline induced increase in phospho-inositol turnover” value ([3]; control conditions) was “no further effect”. The “cell-to-cell dye transfer, median number of cells” value (human osteoblastic cells) was 8.3 cells.
